Measured values reported in the NIST ThermoML archive (doi:10.1016/j.jct.2011.04.005).
Numbers after ± are expanded uncertainties.

Legend:
[1] = Maximal bubble pressure
[2] = xn = mol fraction of the nth substance listed; details: Maximal bubble pressure

CCO [ethanol]
[1]
Details | surface tension liquid-gas [mN/m]
298.15 K | 22.1 ± 0.26
303.15 K | 21.7 ± 0.26
308.15 K | 21.3 ± 0.26
313.15 K | 20.71 ± 0.26
318.15 K | 20.4 ± 0.25

CCCCCCCC [octane]
[1]
Details | surface tension liquid-gas [mN/m]
298.15 K | 21.1 ± 0.26
308.15 K | 20.2 ± 0.26
318.15 K | 19.2 ± 0.25

CCCCCCCC [octane] + CCO
[2]
Details | surface tension liquid-gas [mN/m]
298.15 K, x2 = 0.099 | 20.91 ± 0.26
298.15 K, x2 = 0.208 | 20.9 ± 0.26
298.15 K, x2 = 0.294 | 20.79 ± 0.26
298.15 K, x2 = 0.391 | 20.8 ± 0.26
298.15 K, x2 = 0.512 | 20.75 ± 0.26
298.15 K, x2 = 0.604 | 20.81 ± 0.26
298.15 K, x2 = 0.707 | 20.9 ± 0.26
298.15 K, x2 = 0.809 | 21.03 ± 0.26
298.15 K, x2 = 0.871 | 21.19 ± 0.26
298.15 K, x2 = 0.908 | 21.44 ± 0.26
298.15 K, x2 = 0.955 | 21.69 ± 0.26
308.15 K, x2 = 0.105 | 19.95 ± 0.25
308.15 K, x2 = 0.162 | 19.83 ± 0.25
308.15 K, x2 = 0.209 | 19.81 ± 0.25
308.15 K, x2 = 0.31 | 19.73 ± 0.25
308.15 K, x2 = 0.403 | 19.71 ± 0.25
308.15 K, x2 = 0.5 | 19.72 ± 0.25
308.15 K, x2 = 0.607 | 19.71 ± 0.25
308.15 K, x2 = 0.707 | 19.86 ± 0.25
308.15 K, x2 = 0.807 | 20.05 ± 0.25
308.15 K, x2 = 0.904 | 20.39 ± 0.25
308.15 K, x2 = 0.955 | 20.77 ± 0.26
318.15 K, x2 = 0.103 | 18.96 ± 0.25
318.15 K, x2 = 0.205 | 18.71 ± 0.25
318.15 K, x2 = 0.345 | 18.64 ± 0.25
318.15 K, x2 = 0.448 | 18.6 ± 0.25
318.15 K, x2 = 0.598 | 18.63 ± 0.25
318.15 K, x2 = 0.703 | 18.69 ± 0.25
318.15 K, x2 = 0.809 | 18.83 ± 0.25
318.15 K, x2 = 0.91 | 19.18 ± 0.25
318.15 K, x2 = 0.958 | 19.85 ± 0.25

CCCCCCCCCCCCCC [tetradecane]
Details | surface tension liquid-gas [mN/m]
[1], 313.15 K | 24.8 ± 0.27

CCCCCCCCCCCCCC [tetradecane] + CCO
[2], 313.15 K
Details | surface tension liquid-gas [mN/m]
x2 = 0.054 | 24.67 ± 0.27
x2 = 0.072 | 24.67 ± 0.27
x2 = 0.143 | 24.53 ± 0.27
x2 = 0.191 | 24.25 ± 0.27
x2 = 0.3 | 23.3 ± 0.26
x2 = 0.412 | 22.52 ± 0.26
x2 = 0.522 | 21.98 ± 0.26
x2 = 0.62 | 21.76 ± 0.26
x2 = 0.702 | 21.8 ± 0.26
x2 = 0.8 | 21.66 ± 0.26
x2 = 0.9 | 21.4 ± 0.26
x2 = 0.945 | 21.17 ± 0.26
x2 = 0.967 | 21.02 ± 0.26
x2 = 0.988 | 20.82 ± 0.26
